The structures appear in SMILES notation.

In the first assay the target is T1, mGluR2 receptor (metabotropic glutamate receptor 2) (Homo sapiens, UniProt Q14416).
T1 construct: expressed in transfected cells
T1 sequence (Q14416 19-872, species assumed): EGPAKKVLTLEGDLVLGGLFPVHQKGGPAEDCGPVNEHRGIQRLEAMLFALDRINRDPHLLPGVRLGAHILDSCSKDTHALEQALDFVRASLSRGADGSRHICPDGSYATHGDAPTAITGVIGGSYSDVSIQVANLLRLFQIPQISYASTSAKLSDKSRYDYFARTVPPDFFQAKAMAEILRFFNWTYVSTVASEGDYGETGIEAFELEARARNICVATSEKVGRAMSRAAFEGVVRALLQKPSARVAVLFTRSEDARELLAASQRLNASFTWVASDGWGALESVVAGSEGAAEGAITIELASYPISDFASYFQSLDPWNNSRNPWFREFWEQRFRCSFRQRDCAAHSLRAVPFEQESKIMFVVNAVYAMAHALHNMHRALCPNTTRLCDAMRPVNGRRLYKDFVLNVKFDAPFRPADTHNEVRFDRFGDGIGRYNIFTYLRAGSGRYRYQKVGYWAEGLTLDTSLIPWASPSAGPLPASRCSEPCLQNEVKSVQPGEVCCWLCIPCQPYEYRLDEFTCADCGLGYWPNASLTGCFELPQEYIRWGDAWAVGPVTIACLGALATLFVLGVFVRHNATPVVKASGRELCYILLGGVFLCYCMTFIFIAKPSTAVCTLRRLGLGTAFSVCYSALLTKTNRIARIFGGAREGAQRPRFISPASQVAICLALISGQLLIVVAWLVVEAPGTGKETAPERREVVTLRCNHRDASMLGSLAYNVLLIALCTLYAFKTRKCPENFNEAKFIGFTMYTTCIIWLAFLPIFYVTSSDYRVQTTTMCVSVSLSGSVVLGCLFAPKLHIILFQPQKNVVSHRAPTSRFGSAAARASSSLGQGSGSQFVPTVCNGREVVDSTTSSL
As to the kind of experiment: mGluR2 Potentiator Screen, FLIPR, EC10-EC20 glutamate challenge.
Details: not given
It counts as cell-based. The method, then:
Procedure for mGluR2 Potentiator Screen NLB methods EC10-EC20 Challenge Cell Culture and Plating:
Cells used for this screen are HEK cells stably transfected with the mGluR2 receptor (metabotropic glutamate receptor 2) and the Gα15 G protein. Clones were identified by functional activity (FLIPR). Cells are grown in growth media containing: DMEM High Glucose with Glutamine and Na Pyruvate (GIBCO), 10% (v/v) Heat inactivate FBS (GIBCO), G418 500 ug/ml (from 50 mg/ml stock) (GIBCO) and Blasticidin 3 ug/ml (from 5 mg/ml stock made in H2O) (Invitrogen).
2 days before the assay cell are trypsinized with 0.25% trysin/EDTA (GIBCO), spun down at 1000 rpm for 5 minutes, resuspended in growth media and plated on polystyrene 384 well black wall 1 clear bottom poly-D-lysine coated plates at a density of approximately 18,000 cells/well in a volume of 50 μL per well. One day before the assay the growth media is removed from the plates by flicking, and replaced with media containing DMEM High Glucose without Glutamine and Na Pyruvate (GIBCO) and 10% (v/v) dialyzed FBS (GIBCO). The reason for the removal of glutamine the day before the assay is to minimize the amount of glutamate that will be present during the assay, as endogenous glutarnate released from the cells can reduce the fluorescent response and interfere with the FLIPR screen.
FLIPR Methods and Data Analysis:
On the day of the assay, the FLIPR assay is performed using the following methods.
The pH is adjusted to 7.4 with 1 M NaOH. Prepare a 2 mM (approx.) stock solution of Fluo-4,am (Molecular Probes) dye in DMSO-22 μl DMSO per 50 ug vial (440 μL per 1 mg vial). Make a 1 mM (approx.) flou-4, PA working solution per vial by adding 22 μl of 20% pluronic acid (PA), (Molecular Probes) in DMSO to each 50 ug vial (440 μL per 1 mg vial). Prepare a 250 mM Probenecid (Sigma) stock solution by dissolving 0.71 g into 5 ml 1N NaOH and 5 ml assay buffer (for each liter of assay wash buffer)L Make 4 uM (approx.) dye incubation media by adding […] per 11 ml DMEM high glucose without glutamine (220 ml per 1 mg vial). Add 110 μL probenecid stock per 11 ml (2.5 mM final [concentration]). To the dye media add 3 units/ml of glutamic-pyruvic transaminase (GPT, Sigma) and 3 mM Na Pyruvate. The assay has worked with dye concentrations from 2 uM to 8 uM dye as well. To the assay buffer from drug preparation, add 1.83 mls DMSO and 400 μL 15.8% P104 (from New Leads biology) per liter for final concentrations of 0.18% DMSO and 0.006% P104. To the assay buffer for cell washing, add probenecid in the same manner and concentration that was used for the dye media.
Remove growth media from cell plates by flicking. Add 50 μl/well dye solution. Incubate 1 hour at 37° C. and 5% CO2. Remove dye solution and wash 3 times with assay buffer+probenecid (100 μl probenecid stock per 10 ml buffer), leaving 30 μL/well assay buffer. Wait at least 10-15 minutes. Compounds and agonist challenge additions are performed with the FLIPR. The 1st addition is for test compounds, which are added as 15 μL of 4×[concentration] of potentiator. The second 2nd addition is 15 μL of 4×[concentration] of agonist or challenge. This achieves 1× concentration of all compounds only after 2nd addition. The 1st and 2nd additions are performed separately using the FLIPR, which give 2 different data files. Compounds are pretreated at least 30 minutes before agonist addition,
Results are analyzed by dividing the peak fluorescent value of the FLIPR response by the […] to achieve a ratio response. The ratios are then analyzed by curve fitting programs. […] Maximum values for dose response curves (forced fitting) are derived from standards on the plate.
Compound Preparation and Glutamate Challenge:
Compounds are delivered as 10 mM DMSO stocks or as powders, Powders are solubilized in DMSO at 10 mM (as solubility allows). Compounds are sonicated in a heated water bath (35-40° C.) for at least 20 minutes.
One may read the EC50 as the midpoint of the concentration-response curve. `C[C@@H]1CN(Cc2nc3cnccc3n2C)CC[C@@H]1c1ccc(OC(F)(F)F)cc1` (single isomer, unassigned) [compound 176]: the EC50 amounted to 98.9 nM.

Consider `C[C@@H]1CN(Cc2nc3cnccc3n2C)CC[C@@H]1c1cc(F)c(F)cc1F` (single isomer, unassigned) [compound 226], for which the EC50 is more than 1260 nM.

Turning to `CC(C)Oc1ccc([C@H]2CCN(Cc3nc4ncccc4n3C)C[C@H]2C)c(Cl)c1` (relative stereo) [compound 169], the EC50 worked out at 174 nM.

Regarding `Cn1c(CN2CCC(c3cccc(Cl)c3)CC2)nc2ncccc21` [compound 78], the EC50 was 880 nM.

As for `Cn1c(CN2CCC(c3cc(F)ccc3F)CC2)nc2ncccc21` [compound 74], the EC50 is 782 nM.

Take `COc1ccccc1[C@]1(C)CCN(Cc2nc3ncccc3n2C)C[C@@H]1C` [compound 56]: the EC50 is 3820 nM.

For the compound `C[C@@H]1CN(Cc2nc3ncccc3n2C)CC[C@@H]1c1ccc(OC(F)(F)F)cc1` (relative stereo) [compound 157], the EC50 amounted to 277 nM.

As to `CC1CN(Cc2nc3ncccc3n2C)CCC1c1ccccc1F` (stereo not drawn) [compound 72], the EC50 was determined as 301 nM.

Regarding `Cn1c(CN2CCC(c3cccc(F)c3F)CC2)nc2ncccc21` [compound 108], the EC50 turned out to be 307 nM.

Consider `C[C@@H]1CN(Cc2nc3cnccc3n2C)CC[C@@H]1c1ccc(C(F)(F)F)cc1F` (single isomer, unassigned) [compound 143], for which the EC50 was 1180 nM.

On to `Cn1c(CN2CCC(c3ccc(F)c(Cl)c3)CC2)nc2cnccc21` [compound 102], for which the EC50 is 482 nM.

In the case of `C[C@@H]1CN(Cc2nc3ncccc3n2C)CC[C@@H]1c1ccc(OC(F)F)cc1Cl` (relative stereo) [compound 203], the EC50 turned out to be 43.6 nM.

For `CCOc1ccc(C2CCN(Cc3nc4ncccc4n3C)CC2)cc1` [compound 98], the EC50 turned out to be 2270 nM.

`Cn1c(CN2CCC(c3cc(C(F)(F)F)ccc3F)CC2)nc2cnccc21` [compound 57]: the EC50 was 448 nM.

For `CC(C)Oc1ccc([C@H]2CCN(Cc3nc4cnccc4n3C)C[C@H]2C)c(F)c1` (relative stereo) [compound 167], the EC50 was more than 172 nM.

As for `CC(C)Oc1ccc([C@H]2CCN(Cc3nc4ncccc4n3C)C[C@H]2C)c(F)c1` (single isomer, unassigned) [compound 218], the EC50 was more than 909 nM.

Consider `COc1cc(C(F)(F)F)ccc1C1CCN(Cc2nc3nccc4c3n2CCC4)CC1` [Example 135, 2-({4-[2-methoxy-4-(trifluoromethyl)phenyl]-piperidin-1-yl}methyl)-5,6-dihydro-4H-imidazo[4,5,1-ij]-1,7-naphthyridine], for which the EC50 is less than 5.43 nM.

Consider `Cn1c(CN2CCC(c3ccc(F)cc3F)CC2)nc2cnccc21` [compound 84], for which the EC50 is 218 nM.

As to `C[C@@H]1CN(Cc2nc3cnccc3n2C)CC[C@@H]1c1ccc(Cl)cc1Cl` (relative stereo) [compound 156], the EC50 amounted to 88.2 nM.

In the case of `CCOc1ccc([C@H]2CCN(Cc3nc4cnccc4n3C)C[C@H]2C)cc1F` (relative stereo) [compound 194], the EC50 is more than 5360 nM.

With `COc1cc(C(F)(F)F)ccc1[C@H]1CCN(Cc2nc3cnccc3n2C)C[C@H]1C` (single isomer, unassigned) [compound 142], the EC50 is more than 314 nM.

With `CC(C)Oc1ccc([C@H]2CCN(Cc3nc4cnccc4n3C)C[C@H]2C)c(F)c1` (single isomer, unassigned) [compound 220], the EC50 is more than 1190 nM.

As to `COc1ccc(C2CCN(Cc3nc4ncccc4n3C)CC2)cc1` [compound 81], the EC50 was 9770 nM.

Turning to `Cc1ccc(C2CCN(Cc3nc4ncccc4n3C)CC2)cc1` [compound 104], the EC50 came out at 710 nM.

Take `COc1cc(F)ccc1[C@H]1CCN(Cc2nc3nccc4c3n2CCC4)C[C@H]1C` (relative stereo) [Example 134, 2-{[Cis-4-(4-fluoro-2-methoxyphenyl)-3-methylpiperidin-1-yl]methyl}-5,6-dihydro-4H-imidazo[4,5,1-ij]-1,7-naphthyridine]: the EC50 came to 30.2 nM.

Turning to `CCOc1ccc([C@H]2CCN(Cc3nc4ncccc4n3C)C[C@H]2C)cc1` (relative stereo) [compound 120], the EC50 came to 639 nM.

With `C[C@@H]1CN(Cc2nc3nccc4c3n2CCC4)CC[C@@H]1c1ccc(Cl)cc1F` (relative stereo) [Example 129, 2-{[Cis-4-(4-chloro-2-fluorophenyl)-3-methylpiperidin-1-yl]methyl}-5,6-dihydro-4H-imidazo[4,5,1-ij]-1,7-naphthyridine], the EC50 amounted to 12.5 nM.

As to `Cn1c(CN2CCC(c3ccccc3F)CC2)nc2ncccc21` [compound 54], the concentration for a half-maximal effect (EC50) amounted to 1590 nM.

On to `C[C@@H]1CN(Cc2nc3cnccc3n2C)CC[C@@H]1c1ccc(OC(F)(F)F)cc1F` (single isomer, unassigned) [compound 196], for which the EC50 was found to be 56 nM.

`C[C@@H]1CN(Cc2nc3ncccc3n2C)CC[C@@H]1c1ccc(F)c(C(F)(F)F)c1` (relative stereo) [compound 197]: the EC50 stood at 128 nM.

On to `COc1ccc(Cl)cc1C1CCN(Cc2nc3cccnc3n2C)CC1` [compound 44], for which the EC50 was more than 808 nM.

With `Cc1cccc(C2CCN(Cc3nc4ncccc4n3C)CC2)c1` [compound 62], the EC50 is 617 nM.

With `Cn1c(CN2CCC(c3ccc(Cl)cc3F)CC2)nc2ncccc21` [compound 110], the EC50 turned out to be 27.1 nM.

For the compound `Cn1c(CN2CCC(c3ccc(C(F)(F)F)cc3)C(F)C2)nc2ncccc21` (stereo not drawn) [compound 100], the EC50 was found to be 315 nM.

`COc1cc(C(F)(F)F)ccc1[C@H]1CCN(Cc2nc3ncccc3n2C)C[C@H]1C` (single isomer, unassigned) [compound 131]: the EC50 worked out at 21.9 nM.

Turning to `C[C@@H]1CN(Cc2nc3ncccc3n2C)CC[C@@H]1c1ccc(C(F)(F)F)cc1F` (single isomer, unassigned) [compound 138], the EC50 is less than 9.25 nM.

For `C[C@@H]1CN(Cc2nc3cnccc3n2C)CC[C@@H]1c1ccc(OC(F)(F)F)cc1` (relative stereo) [compound 158], the EC50 amounted to 262 nM.

The assay is the same for the next values; noted with them: HEK cells stably transfected with mGluR2 and Gα15; FLIPR (Fluo-4); potentiation of an EC10 to EC20 concentration of glutamate; Table 9.
Turning to `COc1cc(C(F)(F)F)ccc1C1CCN(Cc2nc3nccc4c3n2CCC4)CC1` [Example 135, 2-({4-[2-methoxy-4-(trifluoromethyl)phenyl]-piperidin-1-yl}methyl)-5,6-dihydro-4H-imidazo[4,5,1-ij]-1,7-naphthyridine], the EC50 was less than 5.43 nM.

For the compound `COc1cc(F)ccc1[C@H]1CCN(Cc2nc3nccc4c3n2CCC4)C[C@H]1C` (relative stereo) [Example 134, 2-{[Cis-4-(4-fluoro-2-methoxyphenyl)-3-methylpiperidin-1-yl]methyl}-5,6-dihydro-4H-imidazo[4,5,1-ij]-1,7-naphthyridine], the EC50 amounted to 30.2 nM.

For `C[C@@H]1CN(Cc2nc3nccc4c3n2CCC4)CC[C@@H]1c1ccc(Cl)cc1F` (relative stereo) [Example 129, 2-{[Cis-4-(4-chloro-2-fluorophenyl)-3-methylpiperidin-1-yl]methyl}-5,6-dihydro-4H-imidazo[4,5,1-ij]-1,7-naphthyridine], the EC50 stood at 12.5 nM.

Staying with this assay, now noted: mGluR2 potentiator screen, FLIPR, EC10-EC20 glutamate challenge.
`CC(C)Oc1ccc(C2CCN(Cc3nc4ncccc4n3C)CC2)c(F)c1` [compound 262]: the EC50 is 127 nM.

Consider `C[C@@H]1CN(Cc2nc3ncccc3n2C)CC[C@@H]1c1ccc(F)cc1C(F)(F)F` (single isomer, unassigned) [compound 251], for which the EC50 stood at 21 nM.

As for `C[C@@H]1CN(Cc2nc3cnccc3n2C)CC[C@@H]1c1ccc(F)c(F)c1F` (relative stereo) [compound 250], the EC50 was more than 221 nM.

As for `Cc1cc(C2CCN(Cc3nc4cnccc4n3C)CC2)ccc1C(F)(F)F` [compound 276], the EC50 amounted to 88.5 nM.

In the case of `Cn1c(CN2CCC(c3ccc(C(F)(F)F)cc3F)CC2)nc2ncccc21` [compound 268], the EC50 was 12.7 nM.

Turning to `Cn1c(CN2CCC(c3ccc(OC(F)(F)F)cc3)CC2)nc2cnccc21` [compound 237], the EC50 came to 160 nM.

For the compound `C[C@@H]1CN(Cc2nc3cnccc3n2C)CC[C@@H]1c1ccc(F)cc1OC(F)F` (relative stereo) [compound 275], the EC50 came to 96.5 nM.

Take `COc1cc(C2CCN(Cc3nc4ncccc4n3C)CC2)ccc1C(F)(F)F` [compound 279]: the EC50 is 289 nM.

The record behind these values is patent publication US20080312271A1, “AZABENZIMIDAZOLYL COMPOUNDS” (Pfizer Inc., priority 2006, published 2008).
